Test results as given in patent EP2769723A1, “Compounds for use in inhibiting HIV capsid assembly” (priority 2013, dated 2014).
Where two headings read alike, the source gives them in different places.

Tests used:
[1] = Solubility observations (DMSO, ITC buffer); format: physicochemical
[2] = system: wild type NL4.3 HIV-1; assay: Tissue culture infectivity test, TZM titration of supernatants from infected TZM cells; format: cell-based; conditions: Human immunodeficiency virus 1, TZM
Procedure: Hits selected in the YFP-screen were further evaluated in the tissue culture experiments with cells infected with the wild type NL4.3 HIV-1. The virus for infection was obtained from co-culture of MT4 cells. The MT4 cells co-culture was synchronized for one week and then used for the infection of fresh MT 4 cells. 48 hrs post-infection was the culture supernatant harvested, cleared by the filtration through […] filter and stored in -80 °C in 1 ml aliquots. Amount of virus was quantified by enzyme-linked immuno sorbent assay (ELISA) with antibodies against HIV-1 CA (3 ng of CA/ml) and blue cell assay (1x10^5 IU/ml), which gives 3 x 10^4 IU/ng of CA.
For compounds testing the TZM cells were seeded on 96-well plate in the density 5 x 10^3 cells per well. The culture media was aspirated approx. 16 hrs later and cells were infected by the wild type NLA.3 HIV-1 by addition of 50J..il of prepared virus stock diluted with 50 µl of complete DMEM. The compounds were added twice to ensure that there are not any preassembled viruses present at the time of their addition. Compounds were first added 8 hrs post-infection and then 24 hrs later. In both cases the old culture media were replaced by 100 µl of fresh complete DMEM prior to the compounds addition. Different compounds concentrations were tested, but the DMSO concentration never exceeded 1 % DMSO. As controls were used cells treated only with 1 % DMSO and cells treated with 0,1 µM Lopinavir (HIV-1 protease inhibitor). Supernatant was harvested 24 hrs after the second compound addition, i.e. 56 hrs post-infection. Harvested supernatants were immediately titrated on the fresh TZM cells in aim to perform the infectivity assay (TZM titration), or inactivated by addition of Triton X-100 to the final concentration 0.025 % for further ELISA analysis.
TZM titration was performed on the cells seeded day before on 96-well plate in the density 5 x 10^3 cells per well. The analysis was performed for each compound concentration at three different dilutions and in duplicates. The culture media was aspired and cells were lysed 48 hrs post-infection by addition of 100 µl of SteadyGlo luciferase substrate (Promega) diluted 1 : 1 by complete DMEM. The luminescence signal was measured on Luminoskan Ascent (Thermo Labsystems) after the transfer of 80 µl of lysate to the flat bottom white polystyrene assay plates (Costar).

[3] = in vitro; format: cell-based; conditions: human
Procedure: (§1) Cytotoxicity of selected hits tested in the assay with NL4.3 infected cells was determined by MTT test. TZM cells were seeded on the previous day on 96-well plate in the density 5 x 10^3 cells per well. The tested compounds were added in different concentrations, but the DMSO concentration never exceeded 1 % DMSO. As controls were used cells treated only with 1 % DMSO (non-toxic concentration) and cells treated with 5 % DMSO (toxic concentration). 20 µl of the CellTiter 96 Aqueous One substrate (Promega) was added to the 100 µl of culture media 48 hrs after the compounds addition and the color development was quantified 4 hrs later by measuring the absorbance at 490 nm on Saphire reader. Compounds were consider non-cytotoxic (at given concentrations) when the measured values were higher than 80 % of the value of 1 % DMSO treated cells.

[4] = molecular target: T1, CA (Human immunodeficiency virus type 1 group M subtype B, UniProt P12493); assay: ALPHA screen (AlphaScreen): inhibition of CAI binding to CA; design: species or system HIV-1
T1 construct: a fusion protein of CA with glutathione-S-transferase (CA-GST)
Procedure: The AlphaScreen experiments are performed using Perkin Elmer Enspire plate reader in white 96-well ProxiPlates and PBS supplemented with 0.05% Tween20, 2mM DTT, 2% DMSO. First, Streptavidin-coated Donor beads are used to capture the CAI-biotin peptide. In the other solution, a fusion protein of CA with glutathione-S-transferase (CA-GST) is mixed with GSH Acceptor beads. Both mixtures were incubated and then mixed together. To test the ability of prepared organic compounds to inhibit the CAI binding to CA, they are screened at concentrations between 0.5-100 µM and IC50 values are calculated from the influenced signals.
Upon illumination by laser at 680 nm, Donor beads containing the photosensitizer phthalocyanine convert ambient oxygen to an excited form of singlet oxygen ^1O2. Singlet oxygen can within its half-life of ~ 4 µs diffuse approximately 200 nm in solution. If an Acceptor bead is within that proximity, which is mostly upon CA:CAI interaction, energy is transferred from the singlet oxygen to thioxene derivates within the Acceptor and signal at 520 - 620 nm is emitted.

[5] = system: TZM cells; assay: in vitro; format: cell-based; conditions: Table 4; non-cytotoxic when values higher than 80 % of 1 % DMSO treated cells
Procedure: as §1

[6] = molecular target: HIV capsid protein C-terminal part (Human immunodeficiency virus type 1 group M subtype B, UniProt P12493); assay: Isothermal titration calorimetry (ITC), C-terminal part; format: binding; conditions: dissociation constant
Procedure: Upper graph: raw experimental data. Lower graph: Fit (line) to the integrated heats (full circles) from each injection, corrected for the heat of dilution of CA ligand AMR-346.
(§2) The binding of CA ligand AMR-346 to the HIV capsid protein and its C-terminal part was monitared using a VP-ITC microcalorimeter (MicroCal Inc., Northampton, USA) at 25 °C. The solutions of reactants were prepared in 30 mM MES, pH 6.0 containing 10 % glycerol, 2 mM 2-mercaptoethanol, 2 % DMSO, and the exact concentrations of proteins were determined by amino acid analysis. […] The isothermal titration was used to estimate the ligand concentration and the binding parameters were calculated for situation when single AMR-346 molecule binds to monomer or dimer of protein, respectively. Typically, 9 µl aliquots of AMR-346 were injected stepwise into the sample cell containing 1.43 ml of 7 µM protein until saturation was achieved. The experiment was accompanied by a corresponding control experiment in which AMR-346 was injected into buffer alone. The association constants were determined by software developed by MicroCal.
The CA ligand AMR-346 binds to monomer of HIV capsid protein or its C-terminal part with dissociation constants of 230 nM or 50 nM, respectively. […]

[7] = molecular target: HIV capsid protein (Human immunodeficiency virus type 1 group M subtype B, UniProt P12493); assay: Isothermal titration calorimetry (ITC), whole capsid protein; format: binding; conditions: dissociation constant
Procedure: as §2
The CA ligand AMR-346 binds to monomer of HIV capsid protein or its C-terminal part with dissociation constants of 230 nM or 50 nM, respectively. For the binding mode of single molecule AMR-346 toward dimeric capsid protein and its C-terminal part, the dissociation constants were estimated to be 120 nM and 26 nM, respectively. Table 4: Synthesized and tested compounds

[8] = CAI-biotin peptide / CA-GST, compounds screened at 0.5-100 µM, read-out: α screen IC50
[9] = read-out: tissue culture IC50 (µM)
[10] = Table 4, non-cytotoxic when values higher than 80 % of 1 % DMSO treated cells, read-out: toxicity LC50
[11] = Table 5, MTT cytotoxicity test, read-out: CC50
[12] = Table 4, cells infected with wild type NL4.3 HIV-1, read-out: tissue culture IC50

| SMILES | IC50 [2, 9] [µM] | toxicity LC50 (µM) [5] | further results |
| --- | --- | --- | --- |
| c1cncc(-c2nc(SCCSc3nc(-c4cccnc4)nc4ccccc34)c3ccccc3n2)c1 [OSR-291] |  |  | solubility in DMSO [1]: insoluble in DMSO |
| Clc1cc(Nc2nc(-c3cccnc3)nc3ccccc23)cc(Cl)c1Cl [KP-253] |  |  | solubility in DMSO [1]: insoluble in DMSO |
| c1cncc(-c2nc(Nc3ccc4[nH]nnc4c3)c3ccccc3n2)c1 [AMR.325] |  |  | IC50 [2]: 6.9 µM; CC50 at 48 h ([3]; tzm cells, Table 5, MTT cytotoxicity test, read-out: CC50): 200 µM; IC50 [4, 8]: > 200 µM |
| O=[N+]([O-])c1ccc(Nc2nc(-c3cccnc3)nc3ccccc23)c(I)c1 [KP-108] | ~1.5 |  | CC50 at 48 h [3, 10]: ~20 µM |
| O=[N+]([O-])c1ccc(F)c(Nc2nc(-c3cccnc3)nc3cc(C(F)(F)F)ccc23)c1 [OSR-178] | ~5 |  | IC50 [2]: 1.5 µM; CC50 at 48 h [3, 10]: ~11 µM; CC50 at 48 h [3, 11]: 5 µM |
| Cl.O=C(O)c1cc(O)ccc1Nc1nc(-c2cccnc2)nc2ccccc12 [5-hydroxy-2-(2-(pyridin-3-yl)quinazolin-4-ylamino)benzoic acid hydrochloride] |  |  | solubility in DMSO [1]: insolubility in DMSO |
| Fc1cc(Nc2nc(-c3cccnc3)nc3ccccc23)cc(F)c1F [OSR-199] | ~5 | non-toxic | IC50 [2]: 5.1 µM; CC50 at 48 h [3, 11]: 100 µM |
| CNc1ccc([N+](=O)[O-])cc1Nc1nc(-c2ccc(C(=O)c3ccccc3)cc2)nc2ccccc12 [OSR-77] | ~3 |  | IC50 [2]: 2 µM; CC50 at 48 h [3, 10]: ~7 µM; CC50 at 48 h [3, 11]: 7.1 µM |
| NC(=O)c1c(F)cccc1Nc1nc(-c2ccccn2)nc2ccccc12 [OSR-85] | ~8 | non toxic | IC50 [2]: 6.5 µM; CC50 at 48 h [3, 11]: 125 µM |
| FC(F)(F)c1cccc(Nc2nc(-c3cccnc3)nc3cc(C(F)(F)F)ccc23)c1 [OSR-201] | ~8 | non-toxic | IC50 [2]: 8.5 µM; CC50 at 48 h [3, 11]: 25 µM |
| CCOC(=O)c1cccc(Nc2nc(-c3ccncc3)nc3ccccc23)c1 [AMR-541] | < 5 | non-toxic |  |
| NNC(=O)c1ccc(Nc2nc(-c3cccnc3)nc3ccccc23)cc1 [KP-242] | > 10 | non-toxic |  |
| CCOc1nc(-c2cccnc2)nc2ccccc12 [OSR-236] |  | non-toxic | IC50 [2, 12]: 10 to 15 µM |
| OCc1ccc(Nc2nc(-c3cccnc3)nc3ccccc23)cc1 [KP-236] | ~10 |  | CC50 at 48 h [3, 10]: ~10 µM |
| O[C@H]1CC[C@H](Nc2nc(-c3cccnc3)nc3ccccc23)CC1 [OSR-183] | > 25 | non-toxic |  |
| Fc1cc(Nc2nc(N3CCOCC3)nc3ccccc23)cc(F)c1F [KP-268] | > 10 | non-toxic |  |
| CN(C)c1nc(-c2cccnc2)nc2ccc(O)cc12 [OSR-242X] |  | non-toxic | IC50 [2, 12]: 0.5 to 1 µM |
| c1cncc(-c2nc(N3CCOCC3)c3ccccc3n2)c1 [KP-190] | > 10 | non-toxic |  |
| CCOC(=O)c1ccc(Nc2nc(-c3ccncc3)nc3ccccc23)cc1 [AMR.346] | ~15 | non-toxic | Kd ([6]; one ligand binds to monomer of C-terminal part, 25 °C, pH 6.0): 0.05 µM; Kd ([6]; single molecule binds to dimeric C-terminal part, estimated): 0.026 µM; IC50 [4]: 7.2 µM; solubility ([1]; 30 mM MES, pH 6.0, 10 % glycerol, 2 % DMSO, concentration required for ITC): low solubility; Kd ([7]; one ligand binds to monomer of HIV capsid protein, 25 °C, pH 6.0): 0.23 µM; Kd ([7]; single molecule binds to dimeric capsid protein, estimated): 0.12 µM |
| Fc1cc(Nc2cc(-c3cccnc3)nc3ccccc23)cc(F)c1F [OSR-205] | ~10 | non-toxic |  |
| Fc1cc(Nc2nc(-c3cncc(Br)c3)nc3ccccc23)cc(F)c1F [KP-158 (old)] | 0.5 to 1 | non-toxic |  |
| CN(C)c1nc(-c2cccnc2)nc2ccc(OS(C)(=O)=O)cc12 [OSR-302] |  |  | CC50 at 48 h [3, 10]: ~7 µM |
| CNc1ccc(F)cc1Nc1nc(-c2ccncc2)nc2ccccc12 [AMR-558] | > 10 | non-toxic |  |
| O=[N+]([O-])c1ccc(Nc2ccnc(-c3cccnc3)n2)c(F)c1 [KP-34] | > 25 | non-toxic |  |
| Fc1ccc(Nc2nc(-c3cccnc3)nc3ccccc23)cc1Cl [KP-207] | > 10 | non-toxic |  |
| CNc1ccc(F)cc1Nc1nc(-c2cccnc2)nc2ccccc12 [AMR-560] | ~12 | non-toxic |  |
| CNc1ccc([N+](=O)[O-])cc1Nc1nc(-c2cccnc2)nc2ccccc12 [AMR.494] |  |  | IC50 [2]: 1.8 µM; CC50 at 48 h [3, 10]: ~15 µM; CC50 at 48 h [3, 11]: 16.1 µM; IC50 [4, 8]: 0.9 µM |
| Fc1cc(Nc2nc(Cl)nc3ccccc23)cc(F)c1F [KP-187] | > 10 | non-toxic |  |
| O=[N+]([O-])c1ccc(Sc2nc(-c3cccnc3)nc3ccccc23)c(F)c1 [KP-76] | ~5 | non-toxic |  |
| c1ccc(Sc2nc(-c3cccnc3)nc3ccccc23)cc1 [OSR-290] | > 10 | non-toxic |  |
